Experimental data taken from US20230135671A1, “USE OF BIOMARKERS IN THE TREATMENT OF FIBROTIC CONDITIONS” (Boehringer Ingelheim International GmbH, priority 2020, published 2023).

Legend:
[1] = system: lung fibroblasts from patients with IPF; details: cited from earlier work
[2] = system: 14 Nintedanib-responsive genes; experiment: GSVA of the 14-gene set, SENSCIS trial, SSc-ILD patients; format: in vivo, human; details: at both visits (24 and 52 weeks), no significant change with Placebo
Description: (§1) Gene set variance analysis (GSVA): The Bioconductor package Gene Set Variance Analysis version 1.3.2 was applied to score each sample individually for the activity of the 14 genes (LTF, CEACAM6, CTSG, OLFM4, MMP8, CEACAM8, DEFA4, OLR1, SHISA4, ABCA13, EMID1, LMOD1, MPO, and PRTN3). The GSVA function was executed with an expression matrix of the log2 Transcripts Per Million (TPM) with a pseudocount of 0.01 added to each value, the list of 14 genes, and the parameter mx.diff set to true. Statistical differences between the GSVA scores between the different treatment groups were tested using a simple linear model and moderated t-statistics computed by the limma package using an empirical Bayes shrinkage method (Law et al., Genome Biol. 2014 Feb 3;15(2):R29.). Identification of genes altered upon Nintedanib treatment in patients with IPF
Following identification of the 14 Nintedanib-responsive genes in the INMARK trial in the context of IPF, expression of these genes was assessed in two additional clinical trials. […] In both of these trials, whole blood samples were prospectively collected and the expression of the 14 said genes was retrospectively analyzed by whole-transcriptome RNA-sequencing. […] Similar effects were observed when the fold changes in expression were calculated in a per-patient fashion (FIG. 8).

mouse models of IPF = details: cited from earlier work
[3] = system: protein-coding genes in whole blood; experiment: Whole-transcriptome RNA sequencing, differentially expressed genes, INMARK trial, IPF patients; format: in vivo, human
Experimental: Blood was sampled into PAXgene RNA tubes (PreAnalytix) and RNA was extracted using the PAXgene Blood RNA kit. Quantity of total RNA was determined by direct absorbance measurement at 260 nm using a spectrophotometer. RNA sequencing libraries were prepared using the Illumina TruSeq Stranded Total RNA Library Prep Kit with Ribo-Zero Globin. Briefly, following removal of ribosomal RNA and globin-encoding mRNA, cleaved RNA fragments were reversely transcribed into first strand cDNA using reverse transcriptase and random primers followed by second strand cDNA synthesis using DNA Polymerase I and RNase H. Strand origin was kept by using Uracil instead of Thymin in the nucleotide mix for […] cDNA synthesis. Following 3′-adenylation and index adapter ligation, cDNA products were purified and enriched by PCR to create the final cDNA library. Library quantity was determined using the Quant-it Pico Green dsDNA reagent and quality was checked by analyzing cDNA fragment size using an Agilent Bioanalyzer 2100 device. Following library dilution to 5 nM, samples were pooled for cluster generation. […]
Quality control: The raw data (single-end read sequences of the captured cDNA fragments) obtained for each sample were assessed for quality using FASTQC v0.11.2. For a successful gene expression analysis of a sample, approximately 50 million reads were required. Reads were mapped to the human reference genome hg38 (GRCh38 Ensembl v. 84) using STAR v2.5.2a. The mapped reads were assessed using RNA-SeQC v1.1.8, whereby mapping statistics (e.g. unique mapping rate, number of detected genes, proportion of reads mapping to protein coding genes) provided the final criteria to decide on usability of the data.
Gene expression intensities were represented as either read counts or TPM values and calculated based on Ensembl v84 gene annotations using subread featureCounts and RSEM version 1.2.31 respectively. Further steps included the use of bamUtil version 1.0.11 and samtools version 1.1 for intermediate calculations such as indexing of bam-files and duplicate read marking. […]

[4] = system: primary human lung fibroblasts from IPF patients; details: cited from earlier work
[5] = system: 14 Nintedanib-responsive genes; experiment: Whole blood RNA-sequencing of the 14 genes, SENSCIS trial, SSc-ILD patients; format: in vivo, human; details: 24 weeks (V70) and, in some instances, 52 weeks (V90), not following Placebo
Experimental: Blood was sampled into PAXgene RNA tubes (PreAnalytix) and RNA was extracted using the PAXgene Blood RNA kit. Quantity of total RNA was determined by direct absorbance measurement at 260 nm using a spectrophotometer. RNA sequencing libraries were prepared using the Illumina TruSeq Stranded Total RNA Library Prep Kit with Ribo-Zero Globin. […] Library quantity was determined using the Quant-it Pico Green dsDNA reagent and quality was checked by analyzing cDNA fragment size using an Agilent Bioanalyzer 2100 device. […]
Normalization factors to scale the samples based on the raw library sizes were calculated using the weighted trimmed mean of M-values (TMM) method using the default parameters of edgeR’s calcNormFactors function (Robinson and Oshlack, Genome Biol. 2010;11(3):R25.). After these pre-processing steps, the log2 counts per million along with associated weights for each observation were then calculated based on the normalized library sizes from the previous step using limma’s voom function (Law et al., Genome Biol. 2014 Feb 3;15(2):R29.). […] Estimates for the mean log2 fold change between follow-up visit at week 12 (wk12) and baseline (bl) in each treatment arm was calculated as
Following identification of the 14 Nintedanib-responsive genes in the INMARK trial in the context of IPF, expression of these genes was assessed in two additional clinical trials. […]

IPF patients = details: multiple clinical trials; cited from earlier work
[6] = system: 14 Nintedanib-responsive genes; experiment: Gene set variation analysis (GSVA) of the 14-gene set, INMARK trial, IPF patients; format: in vivo, human; details: V5 (12 weeks) vs V2, 150 mg b.i.d., p = 1.35E-05, no significant change with Placebo
Description: as §1

[7] = system: normal human lung fibroblasts; details: in vitro; cited from earlier work
[8] = clinical trials (i.a. CAPACITY and ASCEND); cited from earlier work
[9] = adj. p-value <0.05, baseline vs week 12

Row | Compound | PDGF-or FGF-2-stimulated migration of lung fibroblasts [1] | change in GSVA score of the 14-gene set [2] | total lung collagen (mouse models of IPF; IPF mouse models) | lymphocyte and neutrophil counts in the bronchoalveolar lavage fluid (mouse models of IPF; two different mouse models of IPF) | number of significantly changed genes that were downregulated [3, 9] | number of significantly changed genes that were upregulated [3, 9] | number of protein-coding genes with significant differences in expression pre- vs post-treatment ([3]; adj. p-value <0.05, baseline vs week 12, 150 mg b.i.d.) | TGF-β-induced fibroblast to myofibroblast transformation [4] | expression of most of the 14 genes [5] | annual loss of lung function (IPF patients) | change in GSVA score of the 14-gene set [6] | PDGFR-a and-β activation and proliferation of normal human lung fibroblasts [7] | decline of the forced vital capacity (FVC) lung function [8]
1 | COC(=O)c1ccc2c(c1)NC(=O)/C2=C(\Nc1ccc(N(C)C(=O)CN2CCN(C)CC2)cc1)c1ccccc1 [Nintedanib, 3-Z-[1-(4-(N-((4-methyl-piperazin-1-yl)-methylcarbonyl)-N-methyl-amino)-anilino)-1-phenyl-methylene]-6-methoxycarbonyl-2-indolinone] | attenuated | significant reduction | significant reductions | significant reductions | 18 | one | 19 | inhibited | downregulated | reduce | highly significant reduction | inhibit | 
2 | Cc1ccc(=O)n(-c2ccccc2)c1 [Pirfenidone, 5-methyl-1-phenyl-2(1H)-pyridone] |  |  |  |  |  |  |  |  |  |  |  |  | efficacy in reducing
